Measurements taken from ChEMBL document CHEMBL1146426, “Isolation and characterization of new anti-HIV and cytotoxic leads from plants, marine, and microbial organisms” (J Nat Prod, 1997).
Converted amounts (≈) assume the structure as drawn.

How the values were obtained:
[1] = test system: Human immunodeficiency virus 1; assay: Antiviral activity against HIV1 infected in human CEM-SS cells assessed as protection against viral infection after 6 days by XTT-based assay relative to control; format: functional
[2] = test system: Human immunodeficiency virus 1; assay: Antiviral activity against HIV1 infected in human CEM-SS cells assessed as inhibition of virus-induced cytopathic effect after 6 days by XTT-based assay; format: functional, organism-based; details: Human immunodeficiency virus 1, CEM-SS, 144 h
CEM-SS = assay: Cytotoxicity against human CEM-SS cells after 6 days by XTT-based assay; format: cell-based; details: 144 h

COc1ccc2c(c1CC=C(C)C)O[C@H]1c3ccc(O)cc3OC[C@@H]21 [SANDWICENSIN]
Activity [1]: 50% | EC50 [2]: 2 µg/mL (≈ 5.91 µM) | IC50 (CEM-SS): 7 µg/mL (≈ 20.7 µM)

COc1cc2c(cc1CC=C(C)C)[C@@H]1Oc3cc(O)ccc3[C@@H]1CO2
Activity [1]: 80% | EC50 [2]: 0.2 µg/mL (≈ 0.591 µM) | IC50 (CEM-SS): 3 µg/mL (≈ 8.87 µM)
